In brackets after ≈: the same amount, converted by molar mass.
What was measured:
CDK2:CCNE1 = CDK2:CCNE1 (Homo sapiens (Human), UniProt P24941); assay: NanoBRET assay in MCF-7 cells, CDK2; format: cell-based; details: transfected MCF-7 cells, 2 hours, n = 1 or average
Protocol: Compounds were tested in breast cancer cell line MCF-7 to assess inhibition of CDK1, CDK2, and CDK4 activity. […] The next day media were evacuated from the wells using the Bluewasher centrifugal plate washer (Bluecatbio) and 10 μL/well phenol red free OptiMEM was then added using a Multidrop Combi. […] Immediately after compound addition, a Tecan HP300 dispensor was used to dispense the relevant NanoBRET™ tracer to the CDK1 wells (12.5 nl, 400 μM, NanoBRET™ TE Tracer K-9), the CDK2 wells (12.5 nl, 200 μM, NanoBRET™ TE Tracer K-9), and the CDK4 wells (8 nl, 100 μM, NanoBRET™ TE Tracer K-7) and the plates were incubated for 2 hours at 37° C. and 5% CO2. […] The plates were incubated in subdued lighting for 10 minutes and then read on a Pherastar FS plate reader (BMG Technologies) using a NanoBRET™ filter module (460±80 nm/610 nm-LP). The ratio values were normalized to controls and the IC50 values of test compounds determined using Genedata Screener software.

CDK1:CCNB1 = CDK1:CCNB1 (Homo sapiens (Human), UniProt P06493); assay: NanoBRET assay in MCF-7 cells, CDK1; format: cell-based; details: NanoBRET, transfected MCF-7 cells, 2 hours; n = 1 or average; read-out: CDK1 IC50
Protocol: (§1) Compounds were tested in breast cancer cell line MCF-7 to assess inhibition of CDK1, CDK2, and CDK4 activity. MCF-7 cells transiently transfected with CDK1:CCNB1, CDK2:CCNE1, or CDK4:CCND1 were harvested at a density of 1E5 cells/mL in complete media, seeded 20 μL/well into 384-well Greiner 784080 plates using a Multidrop Combi, and incubated overnight at 37° C. and 5% CO2. The next day media were evacuated from the wells using the Bluewasher centrifugal plate washer (Bluecatbio) and 10 μL/well phenol red free OptiMEM was then added using a Multidrop Combi. […] Immediately after compound addition, a Tecan HP300 dispensor was used to dispense the relevant NanoBRET™ tracer to the CDK1 wells (12.5 nl, 400 μM, NanoBRET™ TE Tracer K-9), the CDK2 wells (12.5 nl, 200 μM, NanoBRET™ TE Tracer K-9), and the CDK4 wells (8 nl, 100 μM, NanoBRET™ TE Tracer K-7) and the plates were incubated for 2 hours at 37° C. and 5% CO2. The plates were allowed to cool for 10 minutes at room temperature and 5 μL/well of TE Nano-Glo®Substrate/Inhibitor at 2.4 μM and 1:500 respectively (N2162 Promega) was added. The plates were incubated in subdued lighting for 10 minutes and then read on a Pherastar FS plate reader (BMG Technologies) using a NanoBRET™ filter module (460±80 nm/610 nm-LP). The ratio values were normalized to controls and the IC50 values of test compounds determined using Genedata Screener software.

CDK4:CCND1 = CDK4:CCND1 (Homo sapiens (Human), UniProt P11802); assay: NanoBRET assay in MCF-7 cells, CDK4; format: cell-based; details: NanoBRET, transfected MCF-7 cells, 2 hours; n = 1 or average; read-out: CDK4 IC50
Protocol: as §1

[1] = system: NPM phosphorylation (Thr199, CDK2-cyclin E complex); assay: NPM phosphorylation imaging assay in MCF-7 cells; format: cell-based; details: Homo sapiens, 4N DNA cells
Protocol: Compounds were tested to assess the effects of CDK2 inhibition in a cellular context. […] During the cell cycle, the CDK2-cyclin E complex phosphorylates NPM at Thr199 which is a prerequisite step for initiation of centrosome duplication.
The cells were fixed by addition of 40 μL/well of 8% paraformaldehyde and incubated at room temperature for 10 minutes. The plates were washed three times with 50 μL/well PBS using a Biotek EL406 plate washer and then permeabilized for 10 minutes at room temperature in 0.3% Triton X100 in PBS. After washing as before, the plates were blocked using 30 μL/well of 2% BSA (w/v) in PBS-T for at least 30 minutes at room temperature. […] Cells containing 4N DNA were selected using the Hoechst staining. Phospho-NPM levels were normalized to controls and the IC50 values of test compounds determined using Genedata Screener software.

[2] = system: POLR2A Ser2 phosphorylation (CDK9); assay: POLR2A Ser2 phosphorylation imaging assay in MCF-7 cells; format: cell-based; details: Homo sapiens, MCF7, 2 h, MCF-7 cells, 2 hours; read-out: POLR2A Ser2 phosphorylation IC50
Protocol: Compounds were tested to assess their effect on CDK9 activity in a cellular context. […] During the cell cycle, CDK9 is a component of a multiprotein complex that phosphorylates POLR2A Ser2 which results in transcription elongation.
[…] were fixed by addition of 40 μL/well of 8% paraformaldehyde and incubated for 10 minutes at room temperature. The plates were washed three times with 50 μL/well PBS using a Biotek EL406 plate washer and then permeabilized for 10 minutes at room temperature in 0.3% Triton X100 in PBS. After washing as before, the plates were blocked using 30 μL/well of 2% BSA (w/v) in PBS-T for over 30 minutes at room temperature. […] After washing in PBS as before, leaving each well in 40 μL of PBS, the plates were sealed and imaged on a Cell Insight imaging system (Thermo) with a 10× objective and 2 fields of view per well. POLR2A Ser2levels were normalized to controls and the IC50 values of test compounds determined using Genedata Screener software.

MCF-7 cells = assay: Cellular proliferation EdU assay, MCF-7; format: cell-based; details: Homo sapiens, MCF7, 48 h, EdU assay, two days; read-out: MCF-7 IC50
Protocol: (§2) Compounds were tested to assess inhibition of cellular proliferation in the breast cancer cell line MCF-7 and the CCNE1-amplified ovarian cell line OVCAR3.
(§3) MCF-7 and OVCAR3 cells in RPMI supplemented with 10% Fetal bovine serum were seeded into 384-well plates (Greiner, Kremsmunster, Austria; 781091), 30 μL/well, using a WellMate. The MCF7 and OVCAR3 cells were seeded at 800 and 1200 cells/well, respectively. Test compounds were added to the wells using an Echo 555 liquid handler and the plates were placed in incubator maintained at 37° C. and 5% CO2 and incubated for two days. On Day 2, an EdU assay was performed following the manufacturer's protocol (Thermo Fisher, C10351). The cells were read on an Acumen eX3 instrument. The IC50 values of test compounds were determined in Genedata by assessing the ratio of signal intensity at 488 nm to the area of signal at 405 nm.

OVCAR3 cells = assay: Cellular proliferation EdU assay, OVCAR3; format: cell-based, human; details: Homo sapiens, OVCAR-3, 48 h, EdU assay, two days; read-out: OVCAR3 IC50
Protocol: as §2, §3

[3] = CLint assessment in human liver microsomes (HLM); format: in vitro ADME; details: 1 μM
Protocol: After a preincubation with NADPH for 8 minutes, reactions were initiated through the addition of the test compound (final volume 250 μl) and incubated at 37° C. in a water bath for 30 minutes. […] Samples were shaken at 800 rpm for 2 minutes and centrifuged at 4000 rpm for 20 minutes at 4° C. to pellet precipitated protein. The supernatant fraction was diluted 1:5 with deionized water, shaken at 1000 rpm for 2 minutes, and further diluted 1:1 with deionized water. Samples were analyzed by LC-MS/MS. The t1/2 and the CLint of the compounds incubated in the LM, HLM, and HμREL assays as described above were calculated according to the following equations: […] where V (μl/×10^6 cells or mg protein) is the incubation volume (μl) divided by the number of cells (×10^6) or microsomal protein content (mg) in the incubation.

[4] = Aqueous thermodynamic solubility, shake-flask; format: physicochemical; details: aqueous phosphate buffer, 25 °C, pH 7.4, aqueous buffer, thermodynamic from solid, phosphate buffer 0.1 M, pH 7.4, 24 hours
Protocol: The DMSO was evaporated and the dried compounds were equilibrated in glass vials in aqueous phosphate buffer (0.1 M, pH 7.4) for 24 hours at 25° C. under constant stirring. The portion with the dissolved compound was then separated from the remainder through a double centrifugation with a tip wash in between to ensure that no residues of the dried compound were interfering. The solutions were diluted with purified water before quantification using UPLC/MS/MS.

CDK1:CCNB1, sequence (P06493 whole entry): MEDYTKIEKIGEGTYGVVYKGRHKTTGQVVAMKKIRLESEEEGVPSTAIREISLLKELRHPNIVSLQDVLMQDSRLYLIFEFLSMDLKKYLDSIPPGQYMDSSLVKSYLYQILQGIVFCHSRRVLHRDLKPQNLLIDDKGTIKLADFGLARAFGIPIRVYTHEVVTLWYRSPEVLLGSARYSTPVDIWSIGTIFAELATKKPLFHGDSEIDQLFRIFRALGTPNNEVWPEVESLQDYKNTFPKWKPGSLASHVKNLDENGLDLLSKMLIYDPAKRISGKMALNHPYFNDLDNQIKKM
CDK1:CCNB1, sequence (P14635 whole entry partner): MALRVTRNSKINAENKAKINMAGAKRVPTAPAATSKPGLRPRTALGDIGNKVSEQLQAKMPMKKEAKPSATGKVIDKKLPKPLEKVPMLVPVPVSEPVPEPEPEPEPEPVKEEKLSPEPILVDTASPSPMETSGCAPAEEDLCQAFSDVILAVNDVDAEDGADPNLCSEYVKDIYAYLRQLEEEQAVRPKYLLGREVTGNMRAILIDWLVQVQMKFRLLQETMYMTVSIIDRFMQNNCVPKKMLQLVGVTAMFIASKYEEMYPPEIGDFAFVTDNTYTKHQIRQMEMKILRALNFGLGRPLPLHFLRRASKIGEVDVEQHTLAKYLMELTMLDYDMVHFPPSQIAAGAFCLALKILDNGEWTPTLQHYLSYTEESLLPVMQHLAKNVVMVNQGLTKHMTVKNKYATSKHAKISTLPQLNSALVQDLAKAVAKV
CDK4:CCND1, sequence (P11802 whole entry): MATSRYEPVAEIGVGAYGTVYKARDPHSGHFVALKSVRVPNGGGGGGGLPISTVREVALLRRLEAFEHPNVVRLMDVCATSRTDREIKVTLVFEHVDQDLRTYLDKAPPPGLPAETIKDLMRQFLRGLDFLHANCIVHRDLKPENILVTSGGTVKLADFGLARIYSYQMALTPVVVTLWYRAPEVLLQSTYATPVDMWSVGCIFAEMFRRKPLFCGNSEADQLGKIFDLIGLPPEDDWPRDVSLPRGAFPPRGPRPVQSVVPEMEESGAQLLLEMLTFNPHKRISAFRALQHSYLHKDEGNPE
CDK4:CCND1, sequence (P24385 whole entry partner): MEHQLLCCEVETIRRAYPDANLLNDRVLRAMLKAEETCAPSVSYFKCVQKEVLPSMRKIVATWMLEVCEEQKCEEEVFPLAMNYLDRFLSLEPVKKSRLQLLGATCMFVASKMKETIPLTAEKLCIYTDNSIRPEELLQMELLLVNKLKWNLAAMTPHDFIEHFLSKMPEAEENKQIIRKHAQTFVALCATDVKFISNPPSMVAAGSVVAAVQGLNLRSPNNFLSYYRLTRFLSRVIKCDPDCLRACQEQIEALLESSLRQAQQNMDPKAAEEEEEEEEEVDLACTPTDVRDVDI

SMILES	IC50 (CDK2:CCNE1)	IC50 (CDK1:CCNB1)	IC50 (CDK4:CCND1)	IC50 ([1]; MCF7, 2 h)	HLM CLint [3]	solubility at 24 h [4]	IC50 [2]	IC50 (MCF-7 cells)	IC50 (OVCAR3 cells)	IC50 ([1]; MCF7, 2 hours)
CC[C@H](Nc1nc(N[C@H]2CCN(S(=O)(=O)NC[C@H]3COCCO3)C2)c2ncn(CC)c2n1)[C@@H](C)O [Example 23, (S)—N—(((S)-1,4-dioxan-2-yl)methyl)-3-((9-ethyl-2-(((2R,3S)-2-hydroxypentan-3-yl)amino)-9H-purin-6-yl)amino)pyrrolidine-1-sulfonamide]	57 nM	2600 nM	> 29700 nM		57.5 µL/min/mg	814 µM (≈ 417 µg/mL)	> 30000 nM	1950 nM	495 nM	484 nM
C[C@H](Nc1nc(N[C@@H]2CN(S(=O)(=O)c3ncc[nH]3)C[C@H]2F)c2ncn(C(F)F)c2n1)[C@@H](O)C(F)(F)F (relative stereo) [Example 57, (2R,3S)-3-((6-(((3R*,4R*)-1-((1H-imidazol-2-yl)sulfonyl)-4-fluoropyrrolidin-3-yl)amino)-9-(difluoromethyl)-9H-purin-2-yl)amino)-1,1,1-trifluorobutan-2-ol]	11 nM	186 nM	1500 nM	55 nM	33.5 µL/min/mg	884 µM (≈ 480 µg/mL)	4400 nM	200 nM	155 nM	
CC(C)[C@H](CO)Nc1nc(N[C@@H]2CN(S(C)(=O)=O)C[C@H]2F)c2ncn(C(C)C)c2n1 [Example 33, (R)-2-((6-(((3R,4R)-4-fluoro-1-(methylsulfonyl)pyrrolidin-3-yl)amino)-9-isopropyl-9H-purin-2-yl)amino)-3-methylbutan-1-ol]	26 nM	5750 nM	8100 nM				> 30000 nM	2970 nM	880 nM	752 nM
CC[C@H](CO)Nc1nc(N[C@H]2CCN(S(C)(=O)=O)C2)c2ncn(CC)c2n1 [Example 38, (R)-2-((9-ethyl-6-(((S)-1-(methylsulfonyl)pyrrolidin-3-yl)amino)-9H-purin-2-yl)amino)butan-1-ol]	21 nM	1040 nM	6000 nM				> 30000 nM	2310 nM	782 nM	392 nM
CC[C@H](Nc1nc(N[C@H]2CCN(S(=O)(=O)NC)C2)c2ncn(CF)c2n1)[C@@H](C)O [Example 54, (S)-3-((9-(fluoromethyl)-2-(((2R,3S)-2-hydroxypentan-3-yl)amino)-9H-purin-6-yl)amino)-N-methylpyrrolidine-1-sulfonamide]						593 µM (≈ 255 µg/mL)	> 30000 nM	1370 nM	756 nM	334 nM

More lines, main results first:

IC50 (CDK2:CCNE1)	IC50 (CDK1:CCNB1)	IC50 (CDK4:CCND1)	IC50 ([1]; MCF7, 2 h)	HLM CLint [3]	solubility at 24 h [4]	SMILES	IC50 [2]	IC50 (MCF-7 cells)	IC50 (OVCAR3 cells)	IC50 ([1]; MCF7, 2 hours)
24 nM	587 nM	4300 nM	253 nM	>300 µL/min/mg	1.79 µM (≈ 0.858 µg/mL)	CCn1cnc2c(N[C@H]3CCN(S(=O)(=O)CC(F)(F)F)C3)nc(N[C@@H](CO)C(C)C)nc21 [Example 40, (R)-2-((9-ethyl-6-(((S)-1-(2,2,2-trifluoroethylsulfonyl)pyrrolidin-3-yl)amino)-9H-purin-2-yl)amino)-3-methylbutan-1-ol]	> 30000 nM	2710 nM	6720 nM	
11 nM	557 nM	5200 nM	150 nM	148 µL/min/mg	97.2 µM (≈ 41.7 µg/mL)	CCn1cnc2c(N[C@H]3CCN(S(=O)(=O)CF)C3)nc(N[C@@H](CO)C(C)C)nc21 [Example 43, (R)-2-((9-ethyl-6-(((S)-1-(fluoromethylsulfonyl)pyrrolidin-3-yl)-amino)-9H-purin-2-yl)amino)-3-methylbutan-1-ol]	> 30000 nM	328 nM	291 nM	
19 nM	663 nM	7700 nM	182 nM	177 µL/min/mg	39.2 µM (≈ 17.2 µg/mL)	CCn1cnc2c(N[C@H]3CCN(S(=O)(=O)C4CC4)C3)nc(N[C@@H](CO)C(C)C)nc21 [Example 41, (R)-2-((6-(((S)-1-(cyclopropylsulfonyl)pyrrolidin-3-yl)amino)-9-ethyl-9H-purin-2-yl)amino)-3-methylbutan-1-ol]	> 30000 nM	746 nM	327 nM	

— patent US20250197425A1, “2,6,9-TRISUBSTITUTED PURINES” (ASTRAZENECA AB, priority 2022, published 2025)
